One compound from ChEMBL document CHEMBL1687795, “Mathematical modeling to characterize the inoculum effect” (2010) can be followed below.

Molecules are shown by their SMILES. Converted amounts (≈) assume the structure as drawn. The source made the active and inactive calls. The rule behind the calls is not given here.

In assay [1] the test system is Escherichia coli. The assay is described as follows: Antimicrobial activity against Escherichia coli ATCC 25922 by broth macrodilution method in presence of beta-lactamase inhibitor Tazobactam. In kind it is functional, organism-based.
Assay [2] relates to Escherichia coli. The assay is described as follows: Antimicrobial activity against Escherichia coli ATCC 25922 by broth macrodilution method. In kind it is functional.
Assay [3] concerns Escherichia coli. As to the kind of experiment: Bactericidal activity against Escherichia coli ATCC 25922 using 10^8 CFU/ml inoculum assessed as log reduction in bacterial count at 256 times MIC after 24 hrs by time-kill study. In kind it is functional.
Assay [4] concerns Escherichia coli. As to the kind of experiment: Bactericidal activity against Escherichia coli ATCC 25922 using 10^5 CFU/ml inoculum assessed as log reduction in bacterial count at 4 times MIC after 24 hrs by time-kill study. Type of assay: functional.

`CCN1CCN(C(=O)N[C@@H](C(=O)N[C@@H]2C(=O)N3[C@@H]2SC(C)(C)[C@@H]3C(=O)O)c2ccccc2)C(=O)C1=O` [PIPERACILLIN]: the result in the assay on Escherichia coli [1] was Active. Further, the MBC against Escherichia coli [2] was determined as 2 µg/mL (≈ 3.86 µM). Moreover, in the assay on Escherichia coli [2], the MIC stood at 2 µg/mL (≈ 3.86 µM). For the same compound, the FC in the assay with Escherichia coli [3] and with Escherichia coli [4] was greater than 2 in each case.
